For one data set, the target named is human TET2 construct (Homo sapiens, UniProt Q6N021, A1837G/A1840G/D1704G/D1842G/DEL1471-1702/DEL1708-1833/E1841G/F1706G/N1843S/Q1834G/V1836G). The data set is described as follows: Determination of TET2 binding by Surface Plasmon Resonance. The conditions noted are these: SPR, Biacore T200, 25° C., steady state fit to single site interaction model. As to the method:
The human methylcytosine dioxygenase TET2 construct used (1129-2002 with residues 1471-1843 replaced by a 15-residue GS-linker) was expressed in a pET-28a(+)psumo vector with kanamycin resistance and an N-terminal His6 tag, and cloned in Rosetta D3 Escherichia coli competent cells. Transformed cells were cultured overnight in 10 mL of LB media supplied with kanamycin (50 μg/mL), then scaled to 1 L LB medium supplied with kanamycin (50 μg/mL) and grown at 37° C. Once the optical density (OD600) achieved 0.8, protein expression was induced with 0.4 mM isopropyl-β-thiogalactopyranoside (IPTG) overnight at 18° C. Cells were harvested by centrifugation (8,000 rpm, 4° C., 30 min) and the pellet obtained was resuspended in 15 mL of buffer A (50 mM Hepes, 150 mM NaCl, 30 mM imidazole, 2 mM β-mercaptoethanol (pH 8.0) supplemented with Pierce protease inhibitor cocktail (ThermoFisher Scientific)) and lysed by sonication (1 min 40 s: 10 cycles×10 s ON, 30 s OFF, A=35%, T=19° C.) followed by two consecutive centrifugations (8,000 rpm, 4° C., 30 min) to clarify the lysate.
The TET2 protein was purified using an AKTA Start system (GE Healthcare, Uppsala, Sweden) by two-step purification procedure: one His-affinity chromatography followed by a size exclusion chromatography. First, the protein fraction obtained during the lysis (supernatant) was applied to a 5 mL HisTrap HP column (GE Healthcare), washed with buffer A (50 mM Hepes, 150 mM NaCl, 30 mM imidazole, 2 mM […] (pH 8.0)) and the bound protein was eluted with buffer B (50 mM Hepes, 150 mM NaCl, 250 mM imidazole, 2 mM β-mercaptoethanol (pH 8.0)). The eluted protein-containing fractions were pooled and concentrated up to 4 mL for the last purification step: a size exclusion chromatography (HiPrep 16/60 Sephacryl S-100 HR) in 50 mM Hepes, 150 mM NaCl, 2 mM β-mercaptoethanol (pH 8.0). Finally, the mass and purity of the protein were verified by SDS-electrophoresis and mass spectrometry.
The binding of compounds of the examples was determined by Surface Plasmon Resonance (SPR) using a Biacore T200 SPR biosensor instrument (GE Healthcare, Uppsala, Sweden) at 25° C. The human TET2 construct was immobilized on a CM5 sensor chip using a standard covalent immobilization via amine coupling following the activation of the carboxymethyl dextran matrix of the sensor chip (injection of a solution containing 0.1 M N-hydroxysuccinimide and 0.4 M 1-ethyl-3-[3-(dimethylamino)propyl]carbodiimide hydrochloride at a flow rate of 15 μL/min for 7 min). The protein immobilization was achieved after the injection of 5 μg/mL TET2 in 10 mM sodium acetate (pH 4.0) at a flow rate of 5 μL/min. Unreacted activated groups of the dextran matrix were deactivated by injection of 1 M ethanolamine hydrochloride for 7 min at a flow rate of 15 μL/min. The corresponding matrix activation and protein immobilization were performed using as a running buffer a phosphate buffered saline solution (1.05× PBS: 10 mM phosphate, pH 7.4, 150 mM NaCl). The screened compounds were prepared in a 20 mM stock solution in DMSO and diluted with 1.05× PBS to achieve a final 5% (v/v) DMSO concentration. The running buffer of the interaction assays consisted of 1×PBS, 5% (v/v) DMSO. The flow rate used for the screening was 60 μL/min and the ligand association and dissociation times set were 60 s and 120 s, respectively.
For data analysis the software used was the Biacore T200 Evaluation software. Different corrections were applied. First, the nonspecific binding to the chip surface and the baseline drift were corrected subtracting the signals of a reference surface (where the immobilization procedure was carried out without proteins) to the signals obtained on the TET2 surface. Second, a series of solvent standards (solvent correction) were introduced to remove the differences derived from the DMSO. Finally, the background was corrected subtracting blank injections (blank subtraction) to the injected compound signals.

A further data set deals with HL60 cell line. Kind of data set: Antiproliferative activity on HL60 cell line (CellTiter-Glo). The format is cell-based. The conditions noted are these: Homo sapiens, HL-60; HL60, 72 h of treatment. As to the method: The human leukaemic cell line HL60 was grown in suspension in RPMI 1640 medium containing 10% (v/v) FBS and 1% (v/v) P/S (Life Technologies). […] Leukaemia cells were suspended at a density of 2×10^5 cells/mL in complete RPMI 1640 medium and 25 μL were seeded in each well (5×10^3 final total cells/well). A 10 μM solution of the compounds of examples 1, 12 and 21, and a 25 μM solution of all other compounds were prepared in complete medium, and then serially diluted (1:2) (as specified in Table 3 below). A solution of complete medium with DMSO was used as a vehicle control.
Twenty-five microliters of each serially diluted compound solution were added to the corresponding wells of the plate (50 μL of final volume/well). After 48 h of treatment, 50 μL of fresh 2X serially diluted compound solution was added to their corresponding wells (100 μL of final volume/well). After twenty-four additional hours, an equal volume (100 μL) of CellTiter-Glo Reagent (Promega) was added to each well, plates were shaken during 2 min and incubated at rt for 10 min. Luminescence was recorded using a Spark multimode microplate reader and an integration time of 1 s per well.

Molecules are shown by their SMILES.

In the case of `Cc1[nH]c2ccccc2c1-c1csc(NC(=O)Cc2csc3nccn23)n1` [Example 2, 2-(imidazo[2,1-b]thiazol-3-yl)-N-[4-(2-methyl-1H-indol-3-yl)thiazol-2-yl]acetamide], the melting point fell in the range of 160 to 163 °C. The compound further gave an equilibrium dissociation constant (Kd) at human TET2 construct of 15 µM. The same compound showed an EC50 in the data set on HL60 cell line of 4.3 µM.
The like results for `Cc1[nH]c2ccccc2c1-c1csc(NC(=O)Cc2nc3ccccc3o2)n1` [Example 3, 2-(benzo[d]oxazol-2-yl)-N-[4-(2-methyl-1H-indol-3-yl)thiazol-2-yl]acetamide] were, in that order, 239 to 242 °C, 16 µM and 1.3 µM.
The like results for `Cc1[nH]c2ccccc2c1-c1coc(NC(=O)Cc2cn3ccsc3n2)n1` [Example 5, 2-(imidazo[2,1-b]thiazol-6-yl)-N-[4-(2-methyl-1H-indol-3-yl)oxazol-2-yl]acetamide] were, in that order, 122 to 124 °C, 21 µM and 12.1 µM.
The like results for `COc1ccc2[nH]cc(CC(=O)Nc3nc(-c4c(C)[nH]c5ccccc45)cs3)c2c1` [Example 6, 2-(5-methoxy-1H-indol-3-yl)-N-[4-(2-methyl-1H-indol-3-yl)thiazol-2-yl]acetamide] were, in that order, 127 to 129 °C, 5 µM and 3.4 µM.
Compound `Cc1[nH]c2ccccc2c1-c1csc(NC(=O)Cc2cc3ccccc3[nH]2)n1` [Example 7, 2-(1H-indol-2-yl)-N-[4-(2-methyl-1H-indol-3-yl)thiazol-2-yl]acetamide] came in with a melting point of 166 to 168 °C. On human TET2 construct, this compound showed a Kd of 5 µM. Also, the EC50 in the data set on HL60 cell line was 9.3 µM.
The like results for `Cc1[nH]c2ccccc2c1-c1csc(NC(=O)Cc2cn3cc(F)ccc3n2)n1` [Example 8, 2-(6-fluoroimidazo[1,2-a]pyridin-2-yl)-N-[4-(2-methyl-1H-indol-3-yl)thiazol-2-yl]acetamide] were, in that order, 114 to 119 °C, 10 µM and 0.072 µM.
Compound `Cc1cn2cc(CC(=O)Nc3nc(-c4c(C)[nH]c5ccccc45)cs3)nc2s1` [Example 9, N-[4-(2-methyl-1H-indol-3-yl)thiazol-2-yl]-2-(2-methylimidazo[2,1-b]thiazol-6-yl)acetamide] showed a melting point of 140 to 142 °C. In addition, the affinity at human TET2 construct, expressed as Kd, was 9 µM.
`Cc1[nH]c2ccccc2c1-c1csc(NC(=O)Cc2cn3c(C)csc3n2)n1` [Example 10, N-[4-(2-methyl-1H-indol-3-yl)thiazol-2-yl]-2-(3-methylimidazo[2,1-b]thiazol-6-yl)acetamide] returned a melting point of 145 to 148 °C. At human TET2 construct, this compound came in with a Kd of 11 µM. Further, the EC50 with HL60 cell line came out at 3.3 µM.
Turning to `Cc1[nH]c2ccccc2c1-c1csc(NC(=O)Cc2cn(C)c3ccccc23)n1` [Example 11, 2-(1-methyl-1H-indol-3-yl)-N-[4-(2-methyl-1H-indol-3-yl)thiazol-2-yl]acetamide], the melting point was in the range of 139 to 142 °C. Binding at human TET2 construct was put at a Kd of 2 µM. Besides, in the data set on HL60 cell line, a half-maximal response (EC50) required 2.2 µM.
`Cc1[nH]c2ccccc2c1-c1csc(NC(=O)CCc2c[nH]c3ccccc23)n1` [Example 14, 3-(1H-indol-3-yl)-N-[4-(2-methyl-1H-indol-3-yl)thiazol-2-yl]propanamide] displayed a melting point of 133 to 135 °C. On human TET2 construct, this compound yielded a Kd of 14 µM. For the same compound, the EC50 in the data set with HL60 cell line amounted to 13.4 µM.
Turning to `Cc1[nH]c2ccccc2c1-c1csc(N(C)C(=O)C(C)c2cn3ccsc3n2)n1` (stereo not drawn) [Example 15, 2-(imidazo[2,1-b]thiazol-6-yl)-N-methyl-N-[4-(2-methyl-1H-indol-3-yl)thiazol-2-yl]propanamide], the melting point fell in the range of 85 to 88 °C. In addition, the Kd on human TET2 construct came to 11 µM. Further, the EC50 in the data set on HL60 cell line stood at 20.2 µM.
In turn, `Cc1[nH]c2ccccc2c1-c1csc(NC(=O)Cc2c[nH]c3cc(Cl)ccc23)n1` [Example 16, 2-(6-chloro-1H-indol-3-yl)-N-[4-(2-methyl-1H-indol-3-yl)thiazol-2-yl]acetamide] gave a melting point of 175 to 177 °C. At human TET2 construct, this compound showed a Kd of 7 µM.
As to `Cc1[nH]c2ccccc2c1-c1csc(NC(=O)Cc2c[nH]cn2)n1` [Example 17, 2-(1H-imidazol-4-yl)-N-[4-(2-methyl-1H-indol-3-yl)thiazol-2-yl]acetamide], the melting point lay in the range of 107 to 112 °C. This compound showed a Kd on human TET2 construct of 11 µM. The compound further gave an EC50 in the data set with HL60 cell line of 4.9 µM.
Consider `Cc1[nH]c2ccccc2c1-c1csc(NC(=O)Cc2sc3ccccc3c2C)n1` [Example 20, N-[4-(2-methyl-1H-indol-3-yl)thiazol-2-yl]-2-(3-methylbenzo[b]thiophen-2-yl)acetamide], for which the melting point was 233 to 235 °C. Further, binding at human TET2 construct was characterised by a dissociation constant (Kd) of 5 µM.
For `O=C(Cc1cn2ccsc2n1)Nc1nc(-c2c[nH]c3ccc([N+](=O)[O-])cc23)cs1` [Example 23, 2-(imidazo[2,1-b]thiazol-6-yl)-N-[4-(5-nitro-1H-indol-3-yl)thiazol-2-yl]acetamide], in that order: 232 to 234 °C and 15 µM.
For `COc1ccc2[nH]c(C)c(-c3csc(NC(=O)Cc4cn5ccsc5n4)n3)c2c1` [Example 25, 2-(imidazo[2,1-b]thiazol-6-yl)-N-[4-(5-methoxy-2-methyl-1H-indol-3-yl)thiazol-2-yl]acetamide], in that order: 143 to 144 °C and 13 µM.
For `Cc1[nH]c2cc(F)ccc2c1-c1csc(NC(=O)Cc2cn3ccsc3n2)n1` [Example 26, N-[4-(6-fluoro-2-methyl-1H-indol-3-yl)thiazol-2-yl]-2-(imidazo[2,1-b]thiazol-6-yl)acetamide], in that order: 157 to 158 °C and 16 µM.
The compound `Cc1[nH]c2ccc([N+](=O)[O-])cc2c1-c1csc(NC(=O)Cc2cn3ccsc3n2)n1` [Example 27, 2-(imidazo[2,1-b]thiazol-6-yl)-N-[4-(2-methyl-5-nitro-1H-indol-3-yl)thiazol-2-yl]acetamide] had a melting point of 150 to 151 °C.
`Cc1[nH]c2ccc(N)cc2c1-c1csc(NC(=O)Cc2cn3ccsc3n2)n1` [Example 28, N-[4-(5-amino-2-methyl-1H-indol-3-yl)thiazol-2-yl]-2-(imidazo[2,1-b]thiazol-6-yl)acetamide] returned a melting point of 125 to 126 °C. The Kd on human TET2 construct amounted to 67 µM.
